According to article PMC2248166, “Quantitative peptide binding motifs for 19 human and mouse MHC class I molecules derived using positional scanning combinatorial peptide libraries” (Immunome Research, 2008):

How the values were obtained:
Format in all cases: binding
H-2 D^d = H-2 D^d (Mus musculus, UniProt P01900)
HLA B*0801 = HLA B*0801 (Homo sapiens, UniProt P01889, A93T/A95T/D138N/E176V/E187T/K202T/Q94N/R180D/S35A/V36M/Y33D/Y91F); experiment: biochemical
HLA A*3201 = HLA A*3201 (Homo sapiens, UniProt P04439, A270S/D101S/D185E/E176V/E277Q/F133L/G103R/G107R/G231S/H175R/I121M/I218V/I322F/K168Q/L105A/L300P/L318F/M331R/P208A/P217A/Q94H/R106L/R138Q/S129P/T104I/T323A/T345S/V100E/V321M/V358M); experiment: biochemical
H-2 K^d = H-2 K^d (Mus musculus, UniProt P01902)
H-2 K^d, sequence (P01887 21-119): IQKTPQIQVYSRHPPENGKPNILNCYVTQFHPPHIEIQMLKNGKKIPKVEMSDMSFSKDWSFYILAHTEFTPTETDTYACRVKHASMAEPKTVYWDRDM
H-2 K^d, sequence (P01902 22-368): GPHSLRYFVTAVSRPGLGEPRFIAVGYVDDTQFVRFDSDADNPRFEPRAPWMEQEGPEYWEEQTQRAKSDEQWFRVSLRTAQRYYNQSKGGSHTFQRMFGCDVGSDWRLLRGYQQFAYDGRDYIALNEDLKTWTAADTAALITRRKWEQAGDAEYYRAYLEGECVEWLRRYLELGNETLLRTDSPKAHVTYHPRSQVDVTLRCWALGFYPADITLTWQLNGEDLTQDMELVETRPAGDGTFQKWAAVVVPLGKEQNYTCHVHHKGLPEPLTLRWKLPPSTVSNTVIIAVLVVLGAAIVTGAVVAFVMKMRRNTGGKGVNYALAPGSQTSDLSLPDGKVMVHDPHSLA

HLA B*3501 = HLA B*3501 (Homo sapiens, UniProt P01889, A329T/A93T/A95T/C349S/D201E/D98Y/E176V/E187L/E204Q/E69T/I218V/K202T/L119I/Q94N/R155S/R180L/S121R/S35A/S48A/T118I/V127L/V306I/V36M/Y140S/Y91F)
HLA B*5801 = HLA B*5801 (Homo sapiens, UniProt P01889, A329T/C349S/D201E/D98Y/E176V/E187L/E204Q/E69T/G107R/I218V/I90N/K202T/L105A/L119I/N104I/N87E/Q89R/Q94S/R106L/R155S/R180L/R86G/S101N/S121R/S35A/S48A/T118I/V127L/V306I/V36M/Y140S/Y91M)
HLA B*1501 = HLA B*1501 (Homo sapiens, UniProt P01889, A329T/A93T/A95T/C349S/D201E/D98Y/E187L/E204Q/E69M/E70A/K202T/N87E/Q94N/R155S/R180W/S121R/S35A/S48A/V306I/V36M/Y140S/Y91S); experiment: biochemical
H-2 K^k = H-2 K^k (Mus musculus, UniProt P04223)
H-2 K^k, sequence (P01887 21-119): as the sequence (P01887 21-119) above
H-2 K^k, sequence (P04223 22-369): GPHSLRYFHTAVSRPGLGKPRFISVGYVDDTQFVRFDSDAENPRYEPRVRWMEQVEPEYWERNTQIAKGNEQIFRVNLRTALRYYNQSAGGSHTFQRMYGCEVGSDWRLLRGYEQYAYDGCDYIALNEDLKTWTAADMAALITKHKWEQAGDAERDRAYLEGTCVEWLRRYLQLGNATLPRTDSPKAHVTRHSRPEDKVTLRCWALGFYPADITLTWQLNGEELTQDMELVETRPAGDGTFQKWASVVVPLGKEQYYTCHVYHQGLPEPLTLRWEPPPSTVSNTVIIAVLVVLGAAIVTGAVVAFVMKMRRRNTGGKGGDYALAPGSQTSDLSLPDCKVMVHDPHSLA

HLA B*5802 = HLA B*5802 (Homo sapiens, UniProt P01889, A329T/C349S/D201E/D98Y/E176V/E187L/E204Q/E69T/G107R/I218V/I90N/K202T/L105A/N104I/N87E/Q89R/Q94S/R106L/R155S/R180L/R86G/S101N/S121W/S35A/S48A/V127L/V306I/V36M/Y140S/Y91M)
HLA B*5301 = HLA B*5301 (Homo sapiens, UniProt P01889, A329T/A93T/A95T/C349S/D201E/D98Y/E176V/E187L/E204Q/E69T/G107R/I218V/K202T/L105A/L119I/N104I/Q94N/R106L/R155S/R180L/S101N/S121R/S35A/S48A/T118I/V127L/V306I/V36M/Y140S/Y91F)
HLA A*6802 = HLA A*6802 (Homo sapiens, UniProt P04439, A269V/D140Y/D185E/E176V/E277Q/E87N/F33Y/G231S/I121R/I166T/I218V/L180W/L300P/L318F/N151K/P208A/P217A/Q86R/R138H/R169H/S129P/T345S/V36M)
H-2 D^b = H-2 D^b (Mus musculus, UniProt P01899)
H-2 D^b, sequence (P01887 21-119): as the sequence (P01887 21-119) above
H-2 D^b, sequence (P01899 25-362): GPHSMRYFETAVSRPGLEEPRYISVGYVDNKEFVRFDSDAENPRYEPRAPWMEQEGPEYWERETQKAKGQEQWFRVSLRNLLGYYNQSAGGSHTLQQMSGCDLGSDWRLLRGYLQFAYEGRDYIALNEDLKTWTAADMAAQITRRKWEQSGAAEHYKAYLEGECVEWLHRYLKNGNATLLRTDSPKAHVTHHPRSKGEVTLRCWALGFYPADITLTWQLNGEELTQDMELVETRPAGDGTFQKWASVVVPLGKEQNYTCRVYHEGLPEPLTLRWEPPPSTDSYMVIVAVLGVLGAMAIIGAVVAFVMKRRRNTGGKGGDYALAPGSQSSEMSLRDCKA

HLA A*3001 = HLA A*3001 (Homo sapiens, UniProt P04439, D140H/D185E/E176W/F33S/G80R/H175R/K168Q/R138E/R41S); experiment: biochemical
HLA B*1503 = HLA B*1503 (Homo sapiens, UniProt P01889, A329T/A93T/A95T/C349S/D201E/D98Y/E187L/E204Q/K202T/N87E/Q94N/R155S/R180L/S121R/S35A/V306I/V36M/Y140S/Y91S); experiment: biochemical
HLA B*5401 = HLA B*5401 (Homo sapiens, UniProt P01889, A329T/C349S/D138N/D201E/E176V/E187T/E204Q/E69G/I76V/K202T/L119W/R155S/R180L/S121T/S35A/S48A/V127L/V306I/V36M/Y140L)
HLA B*5101 = HLA B*5101 (Homo sapiens, UniProt P01889, A329T/A93T/A95T/C349S/D138N/D201E/D98Y/E187L/E204Q/E69T/G107R/I218V/K202T/L105A/L119W/N104I/Q94N/R106L/R155S/R180L/S101N/S121T/S35A/S48A/V306I/V36M/Y195H/Y91F)

H-2 D^d, sequence (P01900 whole entry, looked up): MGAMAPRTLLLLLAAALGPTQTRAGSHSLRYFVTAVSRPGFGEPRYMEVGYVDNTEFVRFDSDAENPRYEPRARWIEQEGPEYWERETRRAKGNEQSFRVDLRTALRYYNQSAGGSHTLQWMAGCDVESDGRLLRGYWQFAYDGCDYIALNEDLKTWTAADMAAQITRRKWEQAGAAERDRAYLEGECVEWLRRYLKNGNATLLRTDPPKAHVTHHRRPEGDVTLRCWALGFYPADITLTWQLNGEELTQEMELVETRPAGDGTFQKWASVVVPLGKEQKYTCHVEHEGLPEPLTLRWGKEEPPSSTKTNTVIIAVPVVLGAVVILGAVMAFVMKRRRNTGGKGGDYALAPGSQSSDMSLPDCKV

Row | Sequence | Normalized average relative binding affinity(ARB) (H-2 D^d) | Normalized average relative binding affinity(ARB) (HLA B*0801) | Normalized average relative binding affinity(ARB) (HLA A*3201) | Normalized average relative binding affinity(ARB) (H-2 K^d) | Normalized average relative binding affinity(ARB) (HLA B*3501) | Normalized average relative binding affinity(ARB) (HLA B*5801) | Normalized average relative binding affinity(ARB) (HLA B*1501) | Normalized average relative binding affinity(ARB) (H-2 K^k) | Normalized average relative binding affinity(ARB) (HLA B*5802) | Normalized average relative binding affinity(ARB) (HLA B*5301) | Normalized average relative binding affinity(ARB) (HLA A*6802) | Normalized average relative binding affinity(ARB) (H-2 D^b) | Normalized average relative binding affinity(ARB) (HLA A*3001) | Normalized average relative binding affinity(ARB) (HLA B*1503) | Normalized average relative binding affinity(ARB) (HLA B*5401) | Normalized average relative binding affinity(ARB) (HLA B*5101)
1 | XXXXXXXPX [3064.0153] | 0.73 | 0.73 | 0.87 | 0.75 | 0.64 | 0.18 | 0.35 | 0.44 | 0.16 | 0.15 | 0.33 | 1.0 | 0.80 | 0.30 | 0.72 | 0.51
2 | XXXXXXXQX [3064.0154] | 0.68 | 0.15 | 0.35 | 0.54 | 0.10 | 0.39 | 0.17 | 0.19 | 0.30 | 0.16 | 0.14 | 0.16 | 0.27 | 0.19 | 0.11 | 0.32
3 | XXXXXXXRX [3064.0155] | 0.46 | 0.30 | 0.26 | 0.49 | 0.072 | 0.13 | 0.15 | 0.10 | 0.37 | 0.46 | 0.13 | 0.068 | 0.35 | 0.11 | 0.059 | 0.36
4 | XXXXXXXSX [3064.0156] | 1.0 | 1.0 | 1.0 | 0.61 | 0.20 | 0.31 | 0.34 | 0.48 | 0.30 | 0.11 | 0.27 | 0.13 | 0.23 | 1.0 | 1.0 | 0.44
5 | XXXXXXXTX [3064.0157] | 0.58 | 0.24 | 0.86 | 0.52 | 0.26 | 0.29 | 0.40 | 0.28 | 0.66 | 0.22 | 0.37 | 0.24 | 0.31 | 0.23 | 0.20 | 0.57
6 | XXXXXXXVX [3064.0158] | 0.52 | 0.48 | 0.62 | 0.37 | 0.37 | 0.20 | 0.38 | 0.38 | 0.26 | 0.51 | 0.17 | 0.35 | 0.19 | 0.34 | 0.10 | 0.32
7 | XXXXXXXWX [3064.0159] | 0.27 | 0.11 | 0.089 | 0.26 | 0.047 | 0.84 | 0.035 | 0.18 | 0.16 | 0.099 | 0.16 | 0.13 | 0.16 | 0.13 | 0.051 | 0.20
8 | XXXXXXXYX [3064.0160] | 0.40 | 0.13 | 0.24 | 0.56 | 0.16 | 0.42 | 0.20 | 0.38 | 1.0 | 0.23 | 0.22 | 0.97 | 1.0 | 0.17 | 0.0018 | 0.67
